Measurements: publication PMC12669672, “Structural insights into selective and dual antagonism of EP2 and EP4 prostaglandin receptors” (The EMBO Journal, 2025)
“And” between values parts separate entries of the source, which are not always exact repeats. Equal values may be shown once. “Also recorded” adds a separate entry of the source. Read-outs that look alike come from different tables or passages of the source.

Assays:
Assay type in all cases: cell-based
[1] = biological target: T1, EP4 WT (Homo sapiens, UniProt P35408); assay: GloSensor cAMP assay, antagonism of PGE2-induced cAMP; conditions: 1 h, single experiments 1st-3rd, Fig. S1A
T1 construct: The full-length EP2 or EP4 was cloned into the pcDNA3.1 vector; FLAG (N); expressed in transfected cells; host or cells: AD293 cells
Protocol: (§1) The full-length EP2 or EP4 was cloned into the pcDNA3.1 vector (Invitrogen), incorporating an N-terminal FLAG tag. AD293 cells were seeded in six-well plates containing DMEM supplemented with 10% dialyzed FBS 1 day prior to transfection. Following overnight growth, cells were transfected with a 1:1 ratio of receptor construct and GloSensor22F cAMP biosensor (Promega) plasmids.
(§2) Twenty-four hours post-transfection, the cells were transferred to CO2-independent media containing 2% GloSensor cAMP Reagent (Promega) and distributed into 384-well assay plates at a density of 4000 cells per well in 10 μL. […] The plates were then incubated at 37 °C for an additional hour before luminescence measurements were taken using an EnVision plate reader.
(§3) Data analysis was performed using GraphPad Prism software v8.0.1. A nonlinear regression analysis, employing a sigmoidal dose–response model, was conducted to determine the Emax values and half-maximum inhibitory concentrations (IC50) for each compound tested.

[2] = biological target: T2, constitutively active EP2 S305A (Homo sapiens, UniProt P43116, S305A); assay: GloSensor cAMP assay, inhibition of constitutive activity; conditions: for cAMP activity (∆pIC50 from EP2 WT): PF-04418948, S305A
T2 construct: The full-length EP2 or EP4 was cloned into the pcDNA3.1 vector; FLAG (N); expressed in transfected cells; host or cells: AD293 cells
Protocol: as §1, §2, §3

[3] = biological target: T3, constitutively active EP2 S308A (Homo sapiens, UniProt P43116, S308A); assay: as above
T3 construct: The full-length EP2 or EP4 was cloned into the pcDNA3.1 vector; FLAG (N); expressed in transfected cells; host or cells: AD293 cells
Protocol: as §1, §2, §3

[4] = biological target: T4, constitutively active EP2 WT (Homo sapiens, UniProt P43116); assay: as above
T4 construct: The full-length EP2 or EP4 was cloned into the pcDNA3.1 vector; FLAG (N); expressed in transfected cells; host or cells: AD293 cells
Protocol: as §1, §2, §3

[5] = biological target: T5, EP2-I85V (Homo sapiens, UniProt P43116, I85V); assay: GloSensor cAMP assay, antagonism of PGE2-induced cAMP, chimeric studies; conditions: single experiments 1st-3rd
T5 construct: The full-length EP2 or EP4 was cloned into the pcDNA3.1 vector; FLAG (N); expressed in transfected cells; host or cells: AD293 cells
Protocol: as §1, §2, §3

[6] = biological target: T6, EP2-L301I (Homo sapiens, UniProt P43116, L301I); assay: as above; conditions: single experiments 1st-3rd
T6 construct: The full-length EP2 or EP4 was cloned into the pcDNA3.1 vector; FLAG (N); expressed in transfected cells; host or cells: AD293 cells
Protocol: as §1, §2, §3

[7] = biological target: T7, EP2-M116L (Homo sapiens, UniProt P43116, M116L); assay: as above; conditions: single experiments 1st-3rd
T7 construct: The full-length EP2 or EP4 was cloned into the pcDNA3.1 vector; FLAG (N); expressed in transfected cells; host or cells: AD293 cells
Protocol: as §1, §2, §3

[8] = biological target: EP2 WT (Homo sapiens, UniProt P43116); assay: GloSensor cAMP assay, antagonism of PGE2-induced cAMP; set-up: The full-length EP2 or EP4 was cloned into the pcDNA3.1 vector; FLAG (N); expressed in transfected cells; host or cells: AD293 cells; conditions: for remaining activity at 0.1 µM / remaining activity at 0.01 µM / remaining activity at 0.001 µM / remaining activity at 0.0001 µM / remaining activity at 10 pM / remaining activity at 1 pM / remaining activity at 10 µM / remaining activity at 1 µM: 1 h; for remaining activity at 0.1 µM / remaining activity at 0.01 µM / remaining activity at 0.001 µM / remaining activity at 0.0001 µM / remaining activity at 10 pM / remaining activity at 1 pM / remaining activity at 10 µM / remaining activity at 1 µM / cAMP activity (∆pIC50 from EP2 WT): single experiments 1st-3rd
Protocol: as §1, §2, §3

[9] = no PGE2, pIC50 mutant - pIC50 WT, mean
[10] = 1 h, PF-04418948 log([M]) -8.00, read-out: % cAMP activity (normalized to WT)
[11] = 1 h, PF-04418948 log([M]) -9.00, read-out: % cAMP activity (normalized to WT)
[12] = 1 h, PF-04418948 log([M]) -10.00, read-out: % cAMP activity (normalized to WT)
[13] = 1 h, PF-04418948 log([M]) -11.00, read-out: % cAMP activity (normalized to WT)
[14] = 1 h, PF-04418948 log([M]) -12.00, read-out: % cAMP activity (normalized to WT)
[15] = 1 h, ligand log([M]) -5, Fig. S7B, read-out: % cAMP activity (normalized to WT)
[16] = 1 h, ligand log([M]) -6, Fig. S7B, read-out: % cAMP activity (normalized to WT)
[17] = 1 h, ligand log([M]) -7, Fig. S7B, read-out: % cAMP activity (normalized to WT)
[18] = 1 h, ligand log([M]) -8, Fig. S7B, read-out: % cAMP activity (normalized to WT)
[19] = 1 h, ligand log([M]) -9, Fig. S7B, read-out: % cAMP activity (normalized to WT)
[20] = 1 h, ligand log([M]) -10, Fig. S7B, read-out: % cAMP activity (normalized to WT)
[21] = 1 h, ligand log([M]) -12, Fig. S7B, read-out: % cAMP activity (normalized to WT)

T1 sequence (P35408 whole entry): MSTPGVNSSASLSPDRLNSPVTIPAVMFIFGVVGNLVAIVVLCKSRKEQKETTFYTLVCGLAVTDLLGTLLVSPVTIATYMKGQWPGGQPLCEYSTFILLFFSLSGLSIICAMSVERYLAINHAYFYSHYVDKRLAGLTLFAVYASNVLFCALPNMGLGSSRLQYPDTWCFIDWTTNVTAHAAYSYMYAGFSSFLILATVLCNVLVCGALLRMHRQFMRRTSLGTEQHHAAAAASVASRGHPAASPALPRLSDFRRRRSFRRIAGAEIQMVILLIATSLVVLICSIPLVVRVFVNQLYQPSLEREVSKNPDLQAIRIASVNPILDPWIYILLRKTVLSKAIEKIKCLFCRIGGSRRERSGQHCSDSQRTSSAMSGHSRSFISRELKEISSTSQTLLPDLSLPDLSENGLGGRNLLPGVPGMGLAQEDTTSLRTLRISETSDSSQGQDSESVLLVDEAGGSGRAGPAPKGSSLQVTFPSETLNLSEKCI
T3 sequence (P43116 whole entry S308A): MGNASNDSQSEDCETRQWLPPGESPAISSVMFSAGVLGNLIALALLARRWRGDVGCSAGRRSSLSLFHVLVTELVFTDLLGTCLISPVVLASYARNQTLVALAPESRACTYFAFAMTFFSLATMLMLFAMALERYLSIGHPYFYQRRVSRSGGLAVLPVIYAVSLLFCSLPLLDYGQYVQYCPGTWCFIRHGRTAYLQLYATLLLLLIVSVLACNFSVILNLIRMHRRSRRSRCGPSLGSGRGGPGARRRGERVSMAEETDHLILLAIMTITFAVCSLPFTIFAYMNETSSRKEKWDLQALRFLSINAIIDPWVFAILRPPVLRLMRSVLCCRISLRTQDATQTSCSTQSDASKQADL
T2 sequence (P43116 whole entry S305A): as the sequence (P43116 whole entry S308A) above, with S305A, A308S counted along it
Sequence of EP2 WT (P43116 whole entry): as the sequence (P43116 whole entry S308A) above, with A308S counted along it
T4 sequence (P43116 whole entry): as the sequence (P43116 whole entry S308A) above, with A308S counted along it
T6 sequence (P43116 whole entry L301I): as the sequence (P43116 whole entry S308A) above, with L301I, A308S counted along it
T5 sequence (P43116 whole entry I85V): as the sequence (P43116 whole entry S308A) above, with I85V, A308S counted along it
T7 sequence (P43116 whole entry M116L): as the sequence (P43116 whole entry S308A) above, with M116L, A308S counted along it

## COc1ccc2cc(OCC3(C(=O)O)CN(C(=O)c4ccc(F)cc4)C3)ccc2c1 [PF-04418948]
[1]; read-out: % cAMP activity EP4 (normalized to Grapiprant), ligand log([M]) -4.00
  remaining activity at 100 µM: 99.1%
[1]; read-out: % cAMP activity EP4 (normalized to Grapiprant), ligand log([M]) -4.70
  remaining activity at […]: 107%
[1]; read-out: % cAMP activity EP4 (normalized to Grapiprant), ligand log([M]) -5.40
  remaining activity at […]: 103%
[1]; read-out: % cAMP activity EP4 (normalized to Grapiprant), ligand log([M]) -6.10
  remaining activity at […]: 106%
[1]; read-out: % cAMP activity EP4 (normalized to Grapiprant), ligand log([M]) -7.49
  remaining activity at 0.03236 µM: 93.7%
[1]; read-out: % cAMP activity EP4 (normalized to Grapiprant), ligand log([M]) -8.89
  remaining activity at 0.001288 µM: 94%
[2]; Mean
  cAMP activity (∆pIC50 from EP2 WT): -1.012
[2]; single experiments 1st-3rd
  cAMP activity (∆pIC50 from EP2 WT): -1.044 and -1.010 and -0.982
[2]; [9]
  ΔpIC50: -1.01 ± 0.02
[3]; [10]
  remaining activity at 0.01 µM: 45.3%
[3]; [11]
  remaining activity at 0.001 µM: 80.9%
[3]; [12]
  remaining activity at 0.0001 µM: 93%
[3]; [13]
  remaining activity at 10 pM: 84.1%
[3]; [14]
  remaining activity at 1 pM: 68.1%
[3]; PF-04418948, S308A, Mean
  cAMP activity (∆pIC50 from EP2 WT): -0.283
[3]; [9]
  ΔpIC50: -0.28 ± 0.10
[4]; 1 h, PF-04418948 log([M]) -7.00, read-out: % cAMP activity (normalized to WT)
  remaining activity at 0.1 µM: 10.6%
[4]; [10]
  remaining activity at 0.01 µM: 44.6%
[4]; [11]
  remaining activity at 0.001 µM: 89.9%
[4]; [12]
  remaining activity at 0.0001 µM: 92.4%
[4]; [13]
  remaining activity at 10 pM: 102%
[4]; [14]
  remaining activity at 1 pM: 104%
[4]; PF-04418948, WT, single experiments 1st-3rd
  cAMP activity (∆pIC50 from EP2 WT): -0.051 and 0.118 and -0.068
[5]; [15]
  remaining activity at 10 µM: 4.76%
[5]; [16]
  remaining activity at 1 µM: 5.53%
[5]; [17]
  remaining activity at 0.1 µM: 21.6%
[5]; [18]
  remaining activity at 0.01 µM: 78.7%
[5]; [19]
  remaining activity at 0.001 µM: 105%
[5]; [20]
  remaining activity at 0.0001 µM: 94.6%
[5]; 1 h, ligand log([M]) -11, Fig. S7B, read-out: % cAMP activity (normalized to WT)
  remaining activity at 10 pM: 103%
[5]; [21]
  remaining activity at 1 pM: 91.7%
[5]; Appendix Fig. S7A
  cAMP activity (∆pIC50 from EP2 WT): -0.301 and -0.398 and -0.280
[6]; [15]
  remaining activity at 10 µM: 20%
[6]; [16]
  remaining activity at 1 µM: 51.7%
[6]; [17]
  remaining activity at 0.1 µM: 121%
[6]; [18]
  remaining activity at 0.01 µM: 112%
[6]; [19]
  remaining activity at 0.001 µM: 117%
[6]; [20]
  remaining activity at 0.0001 µM: 113%
[6]; [21]
  remaining activity at 1 pM: 108%
[6]; Appendix Fig. S7A
  cAMP activity (∆pIC50 from EP2 WT): -1.743 and -1.549 and -1.608
[7]; [15]
  remaining activity at 10 µM: 11.8%
[7]; [16]
  remaining activity at 1 µM: 12%
[7]; [17]
  remaining activity at 0.1 µM: 36.7%
[7]; [18]
  remaining activity at 0.01 µM: 98.5%
[7]; [19]
  remaining activity at 0.001 µM: 132%
[7]; [20]
  remaining activity at 0.0001 µM: 123%
[7]; [21]
  remaining activity at 1 pM: 116%
[7]; Appendix Fig. S7A
  cAMP activity (∆pIC50 from EP2 WT): -0.408 and -0.463 and -0.307
[8]; PF-04418948 log([M]) -7, Fig. 3D, read-out: % cAMP activity (normalized to WT)
  remaining activity at 0.1 µM: 5.55%
[8]; PF-04418948 log([M]) -8, Fig. 3D, read-out: % cAMP activity (normalized to WT)
  remaining activity at 0.01 µM: 44.3%
[8]; PF-04418948 log([M]) -9, Fig. 3D, read-out: % cAMP activity (normalized to WT)
  remaining activity at 0.001 µM: 82.7%
[8]; PF-04418948 log([M]) -10, Fig. 3D, read-out: % cAMP activity (normalized to WT)
  remaining activity at 0.0001 µM: 105%
[8]; PF-04418948 log([M]) -11, Fig. 3D, read-out: % cAMP activity (normalized to WT)
  remaining activity at 10 pM: 101%
[8]; PF-04418948 log([M]) -12, Fig. 3D, read-out: % cAMP activity (normalized to WT)
  remaining activity at 1 pM: 104%
[8]; ligand log([M]) -5, Fig. S7B, read-out: % cAMP activity (normalized to WT)
  remaining activity at 10 µM: 2.66%
[8]; ligand log([M]) -6, Fig. S7B, read-out: % cAMP activity (normalized to WT)
  remaining activity at 1 µM: 2.72%
[8]; ligand log([M]) -7, Fig. S7B, read-out: % cAMP activity (normalized to WT)
  remaining activity at 0.1 µM: 8.2%
[8]; ligand log([M]) -8, Fig. S7B, read-out: % cAMP activity (normalized to WT)
  remaining activity at 0.01 µM: 63.2%
[8]; ligand log([M]) -9, Fig. S7B, read-out: % cAMP activity (normalized to WT)
  remaining activity at 0.001 µM: 96.2%
[8]; ligand log([M]) -10, Fig. S7B, read-out: % cAMP activity (normalized to WT)
  remaining activity at 0.0001 µM: 92.4%
[8]; ligand log([M]) -11, Fig. S7B, read-out: % cAMP activity (normalized to WT)
  remaining activity at 10 pM: 103%
[8]; ligand log([M]) -12, Fig. S7B, read-out: % cAMP activity (normalized to WT)
  remaining activity at 1 pM: 101%
[8]; read-out: % cAMP activity on EP2 (normalized to PF-04418948), ligand log([M]) -5, Fig. S1A
  remaining activity at 10 µM: 2.66%
[8]; read-out: % cAMP activity on EP2 (normalized to PF-04418948), ligand log([M]) -6, Fig. S1A
  remaining activity at 1 µM: 2.72%
[8]; read-out: % cAMP activity on EP2 (normalized to PF-04418948), ligand log([M]) -7, Fig. S1A
  remaining activity at 0.1 µM: 8.2%
[8]; read-out: % cAMP activity on EP2 (normalized to PF-04418948), ligand log([M]) -8, Fig. S1A
  remaining activity at 0.01 µM: 63.2%
[8]; read-out: % cAMP activity on EP2 (normalized to PF-04418948), ligand log([M]) -9, Fig. S1A
  remaining activity at 0.001 µM: 96.2%
[8]; read-out: % cAMP activity on EP2 (normalized to PF-04418948), ligand log([M]) -10, Fig. S1A
  remaining activity at 0.0001 µM: 92.4%
[8]; read-out: % cAMP activity on EP2 (normalized to PF-04418948), ligand log([M]) -11, Fig. S1A
  remaining activity at 10 pM: 103%
[8]; read-out: % cAMP activity on EP2 (normalized to PF-04418948), ligand log([M]) -12, Fig. S1A
  remaining activity at 1 pM: 101%
[8]; cAMP accumulation assay upon PGE2 stimulation, Appendix Fig. S1A
  antagonism profile EP2 versus EP4 (in words): selective antagonists of EP2; also recorded: highly selective for EP2 over EP4
[8]; Appendix Fig. S7A
  cAMP activity (∆pIC50 from EP2 WT): 0.0005 and 0.053 and -0.059
[8]; Fig. 3E
  cAMP activity (∆pIC50 from EP2 WT): 0.043 and 0.00333 and -0.047
